What was measured:
[1] = tested on: human colon cancer cells (HT-29); test: MTT cytotoxicity assay, HT-29; type: cell-based; conditions: HT-29, MTT, 48 h
Description: (§1) In the study, five cancer cell lines (human colon cancer cells (HT-29), gastric cancer cells (BGC-823), cervical cancer cells (Hela), human breast cancer cells (MCF-7), and human lung cancer cells A549)), and two normal cell lines (human gastric epithelial cells (GES-1) and human ovarian epithelial cells (IOSE144)) were used for the evaluation of biological activity. IOSE144 cells were donated by Professor Piao Huri of Yanbian University, all other cells were purchased from the American Type Culture Collection (ATCC, Manassas, VA, USA). Cells were cultured in Dulbecco’s Modified Eagle’s Medium (DMEM), supplemented with 10% heat-inactivated fetal bovine serum (FBS), 1% 100 μg/mL penicillin and 100 μg/mL streptomycin in a humidified atmosphere containing 5% CO2 at 37 °C. Cell viability was measured using the MTT assay. Cells were seeded in 96 well microtiter plates in a volume of 100 μL medium. All compounds tested were dissolved and further diluted in DMSO. After overnight incubation, cells were treated with different test concentrations or carrier solvents alone in a final volume of 100 μL with five replicates each. […] Cells were treated with compound (80, 40, 20, 10, 5 μM) for 48 h. Then, 10 μL of MTT (5 mg/mL) was added to each well and the cells were incubated at 37 °C in the dark for 4 h. Supernatants were removed and formazan crystals were dissolved in DMSO (100 μL/well). The solution was agitated for 10 min, and the absorbance was measured at 490 nm using microplate reader (imark, BIO-RAD, Hercules, CA, USA) to calculate the 50% inhibitory concentration (IC50). Ginsenoside-Rg3, panaxadiol sapogenin (PD), AD-2 (25-OH-PPD) and AD-1 (25-OCH3-PPD) were used as standard reference compounds.

[2] = tested on: gastric cancer cells (BGC-823); test: MTT cytotoxicity assay, BGC-823; type: cell-based, human; conditions: BGC-823, MTT, 48 h
Description: as §1

[3] = tested on: cervical cancer cells (Hela); test: MTT cytotoxicity assay, Hela; type: cell-based, human; conditions: 48 h
Description: as §1

[4] = tested on: human breast cancer cells (MCF-7); test: MTT cytotoxicity assay, MCF-7; type: cell-based; conditions: MCF-7, MTT, 48 h
Description: as §1

[5] = tested on: human lung cancer cells A549; test: MTT cytotoxicity assay, A549; type: cell-based; conditions: 48 h
Description: as §1

[6] = MTT cytotoxicity assay, GES-1 normal cells; type: cell-based, human; conditions: human
Description: as §1

[7] = MTT cytotoxicity assay, IOSE144 normal cells; type: cell-based, human; conditions: human
Description: as §1

[8] = tested on: five cancer cell lines (HT-29, BGC-823, Hela, MCF-7, A549); test: Cytotoxic activity on five cancer cell lines (overall statement); type: cell-based, human; conditions: MTT
Description: as §1

[9] = tested on: human gastric epithelial cells (GES-1); test: MTT cytotoxicity assay, GES-1 normal cells; type: cell-based; conditions: GES-1 normal cells, MTT, 48 h
Description: as §1

[10] = tested on: human ovarian epithelial cells (IOSE144); test: MTT cytotoxicity assay, IOSE144 normal cells; type: cell-based; conditions: IOSE144 normal cells, MTT, 48 h
Description: as §1

MCF-7 cells [11] = test: Cell cycle distribution assay, MCF-7; type: cell-based, human; conditions: MCF-7, 30 μM, 24 h; controls 0.73% (3b) and 1.69% (AD-1)
Experimental: MCF-7 cells treated with 30 μM of compound 3b were incubated for 24 h in CO2 incubator. AD-1 was tested as a positive control, and the experimental concentration of AD-1 was 30 μM. Cells were trypsinized, harvested, washed with PBS, and fixed with 75% ethanol overnight at −20 °C. Next, fixed cells were washed with PBS and stained for 4 h in the dark with a PI solution consisting of 50 μg/mL PI, 50 μg/mL RNase, 0.1% sodium citrate and 0.1% Triton X-100 (pH 8.0). Cell cycle distribution was determined using FACScan (Becton Dickinson, Franklin Lakes, NJ, USA).

MCF-7 cells [12] = test: Wound healing assay; type: cell-based, human; conditions: MCF-7, 30 μM, 24 h, serum-free
Experimental: MCF-7 cells were seeded in 10-cm dishes at a concentration of 1 × 10^5 cells/ mL and grown overnight. Then, a wound was created in the monolayer of cells by scratching the monolayer with a sharp tip followed by another 24 h of incubation in the presence of 30 μM of compound 3b or 0.1% DMSO under serum-free conditions, 30 μM of AD-1 as a positive control. The gap created was measured under a microscope to provide an indication of the wound healing capability of the cells.

[13] = design: method as in earlier work; conditions: stronger than ginsenoside-Rg3; cited from earlier work
IOSE144 cells = test: Cell cycle distribution assay, IOSE144; type: cell-based, human; conditions: IOSE144, 24 h; control 1.17%
[14] = GES-1 gastric epithelial cells (normal cell line), GES-1 normal cells, MTT, 48 h, read-out: IC50
[15] = IOSE144 ovarian epithelial cells (normal cell line), IOSE144 normal cells, MTT, 48 h, read-out: IC50

Work on `CC(=O)Oc1ccccc1C(=O)OC1CCC2(C)C(CCC3(C)C2CC(OC(=O)c2ccccc2O)C2C(C4(C)CCCC(C)(C)O4)CCC23C)C1(C)C` [Compound 1b, 20(R)-Pananxadiol-3β-yl-2′-acetylbenzoate-12β-yl-2′-hydroxybenzoate] yielded an IC50 ([1]; Homo sapiens) of 12.2 ± 0.28 µM, an IC50 ([2]; Homo sapiens) of 9.65 ± 0.61 µM and an IC50 ([3]; Homo sapiens) of 11.3 ± 0.14 µM. It also gave an IC50 ([4]; Homo sapiens, MCF7) of 7.65 ± 0.29 µM, an IC50 ([5]; Homo sapiens) of 13.26 ± 0.11 µM and an IC50 at 48 h [6] of over 100 µM. The IC50 at 48 h [7] was over 100 µM, the “anticancer activity (in words)” value [8] was “strong anticancer activity” and the melting point was 198 to 200 °C.
Compound `COC(C)(C)CCCC(C)(O)C1CCC2(C)C1C(OC(=O)c1ccccc1O)CC1C3(C)CCC(O)C(C)(C)C3CCC12C` [Compound 3a, 20(R)-25-Methoxydammarane-3β,20-diol-12β-yl-2′-hydroxybenzoate] has an IC50 ([1]; Homo sapiens) of 10.5 ± 0.25 µM, an IC50 ([2]; Homo sapiens) of 15.1 ± 0.24 µM and an IC50 ([3]; Homo sapiens) of 9.78 ± 0.03 µM. For the same compound, the IC50 ([4]; Homo sapiens, MCF7) was 5.34 ± 0.04 µM, the IC50 ([5]; Homo sapiens) was 13 ± 0.25 µM and the IC50 at 48 h [6] was over 100 µM. For the same compound, the IC50 at 48 h [7] was over 100 µM, the “anticancer activity (in words)” value [8] was “strong anticancer activity” and the melting point was 235 to 237 °C.
For `CC(C)=CCC[C@](C)(O)[C@H]1CC[C@]2(C)[C@@H]1[C@H](O)C[C@@H]1[C@@]3(C)CC[C@H](O[C@@H]4O[C@H](CO)[C@@H](O)[C@H](O)[C@H]4O[C@@H]4O[C@H](CO)[C@@H](O)[C@H](O)[C@H]4O)C(C)(C)[C@@H]3CC[C@]12C` [Rg3, Ginsenoside-Rg3, reference compound], the IC50 [1] was over 100 µM, the IC50 [2] was over 100 µM and the IC50 [3] was 85.2 ± 1.59 µM. For the same compound, the IC50 [4] was 92.1 ± 2.36 µM, the IC50 [5] was over 100 µM and the IC50 [9] was over 100 µM. The IC50 [10] was over 100 µM.
In the case of `COC(C)(C)CCC[C@@](C)(O)C1CC[C@]2(C)C1[C@H](O)CC1[C@@]3(C)CC[C@H](O)C(C)(C)C3CC[C@]12C` (stereo partly drawn) [AD-1, 25-methoxyprotopanaxadiol, reference compound], the IC50 ([1]; Homo sapiens) is reported as 16.6 ± 0.25 µM, the IC50 ([2]; Homo sapiens) is reported as 16.6 ± 0.45 µM and the IC50 ([3]; Homo sapiens) is reported as 12.99 ± 0.06 µM. For the same compound, the IC50 ([4]; Homo sapiens, MCF7) was 7.34 ± 0.19 µM, the IC50 ([5]; Homo sapiens) was 34.32 ± 0.31 µM and the IC50 at 48 h [6, 14] was over 100 µM. For the same compound, the IC50 at 48 h [7, 15] was over 100 µM, the “subG1 phase after treatment” value (MCF-7 cells [11]) was 38.45% and the “MCF-7 cell migration (wound distance)” value (MCF-7 cells [12]) was “inhibited the migration of MCF-7 cells”. For the same compound, the “antitumor activity compared with ginsenoside-Rg3” value [13] was 5–15 fold.
For `CC(=O)Oc1ccccc1C(=O)OC1CCC2(C)C(CCC3(C)C2CC(O)C2C(C4(C)CCCC(C)(C)O4)CCC23C)C1(C)C` (stereo not drawn) [Compound 3b], the IC50 ([1]; Homo sapiens) was 10.7 ± 0.12 µM, the IC50 ([2]; Homo sapiens) was 11.2 ± 0.16 µM and the IC50 ([3]; Homo sapiens) was 20.9 ± 0.54 µM. It also gave an IC50 ([4]; Homo sapiens, MCF7) of 2.56 ± 0.09 µM, an IC50 ([5]; Homo sapiens) of 14.37 ± 0.04 µM and an IC50 at 48 h [6] of over 100 µM. For the same compound, the IC50 at 48 h [7] was over 100 µM, the “subG1 phase after treatment” value (MCF-7 cells [11]) was 56.95% and the “subG1 phase after treatment” value (IOSE144 cells) was 7.58%. The “anticancer activity (in words)” value [8] was “strong anticancer activity” and the melting point was 243 to 245 °C.
Compound `CC(C)(O)CCC[C@@](C)(O)C1CC[C@]2(C)C1[C@H](O)CC1[C@@]3(C)CC[C@H](O)C(C)(C)C3CC[C@]12C` (stereo partly drawn) [AD-2, 25-hydroxyprotopanaxadiol, reference compound] has an IC50 ([1]; Homo sapiens) of 18.7 ± 0.28 µM, an IC50 ([2]; Homo sapiens) of 44.2 ± 1.06 µM and an IC50 ([3]; Homo sapiens) of 48.6 ± 1.24 µM. For the same compound, the IC50 ([4]; Homo sapiens, MCF7) was 49.6 ± 1.35 µM, the IC50 ([5]; Homo sapiens) was 34.3 ± 0.87 µM and the IC50 at 48 h [6, 14] was over 100 µM. For the same compound, the IC50 at 48 h [7, 15] was over 100 µM and the “antitumor activity compared with ginsenoside-Rg3” value [13] was 5–15 fold.
Compound `CC(C)(CCCC(C)(O)C1CCC2(C)C1C(OC(=O)c1ccccc1O)CC1C3(C)CCC(OC(=O)c4ccccc4O)C(C)(C)C3CCC12C)OC(=O)c1ccccc1O` [Compound 1a, 20(R)-Dammarane-20-hydroxy-3β,12β,25-tri-yl-2′-hydroxybenzoate] has an IC50 ([1]; Homo sapiens) of 9.23 ± 0.08 µM, an IC50 ([2]; Homo sapiens) of 11.8 ± 0.21 µM and an IC50 ([3]; Homo sapiens) of 3.23 ± 0.34 µM. For the same compound, the IC50 ([4]; Homo sapiens, MCF7) was 20.31 ± 0.11 µM, the IC50 ([5]; Homo sapiens) was 15.69 ± 0.1 µM and the IC50 at 48 h [6] was over 100 µM. For the same compound, the IC50 at 48 h [7] was over 100 µM, the “anticancer activity (in words)” value [8] was “strong anticancer activity” and the melting point was 192 to 194 °C.
Compound `CC(C)(O)CCCC(C)(O)C1CCC2(C)C1C(OC(=O)c1ccccc1O)CC1C3(C)CCC(OC(=O)c4ccccc4O)C(C)(C)C3CCC12C` [Compound 7a, 20(R)-Dammarane-20, 25-diol-3β, 12β-di-yl-2′-hydroxybenzoate] has an IC50 ([1]; Homo sapiens) of 22.7 ± 0.46 µM, an IC50 ([2]; Homo sapiens) of 70.6 ± 2.12 µM and an IC50 ([3]; Homo sapiens) of 35.2 ± 1.24 µM. For the same compound, the IC50 ([4]; Homo sapiens, MCF7) was 29.1 ± 0.69 µM, the IC50 ([5]; Homo sapiens) was 8.52 ± 0.15 µM and the IC50 at 48 h [6] was over 100 µM. The IC50 at 48 h [7] was over 100 µM, the “anticancer activity (in words)” value [8] was “strong anticancer activity” and the melting point was 197 to 199 °C.
In the case of `CC(=O)Oc1ccccc1C(=O)OC1CCC2(C)C(CCC3(C)C2CC(O)C2C(C(C)(O)CCCC(C)(C)O)CCC23C)C1(C)C` (stereo not drawn) [Compound 8b], the IC50 ([1]; Homo sapiens) is reported as 13.25 ± 0.05 µM, the IC50 ([2]; Homo sapiens) is reported as 10.2 ± 0.29 µM and the IC50 ([3]; Homo sapiens) is reported as 10 ± 0.53 µM. The IC50 ([4]; Homo sapiens, MCF7) was 14.7 ± 0.24 µM, the IC50 ([5]; Homo sapiens) was 6.12 ± 0.1 µM and the IC50 at 48 h [6] was over 100 µM. For the same compound, the IC50 at 48 h [7] was over 100 µM, the “anticancer activity (in words)” value [8] was “strong anticancer activity” and the melting point was 254 to 256 °C.
Work on `CC(=O)Oc1ccccc1C(=O)OC1CC2C3(C)CCC(OC(=O)c4ccccc4OC(C)=O)C(C)(C)C3CCC2(C)C2(C)CCC(C3(C)CCCC(C)(C)O3)C12` [Compound 2b, 20(R)-Pananxadiol-3β, 12β-di-yl-2′-acetylbenzoate] yielded an IC50 ([1]; Homo sapiens) of 5.27 ± 0.14 µM, an IC50 ([2]; Homo sapiens) of 8.12 ± 0.25 µM and an IC50 ([3]; Homo sapiens) of 16.2 ± 0.34 µM. The IC50 ([4]; Homo sapiens, MCF7) was 10.25 ± 0.05 µM, the IC50 ([5]; Homo sapiens) was 15.47 ± 0.13 µM and the IC50 at 48 h [6] was over 100 µM. For the same compound, the IC50 at 48 h [7] was over 100 µM, the “anticancer activity (in words)” value [8] was “strong anticancer activity” and the melting point was 238 to 240 °C.
